From patent EP4663207A1, “LYMPHATIC VESSEL CONTRAST AGENT WITHOUT VENOUS CONTAMINATION” (Inventera Inc., priority 2023, dated 2024)
Where two headings read alike, the source gives them in different places.

What was measured:
[1] = MR relaxivity, phantom at 9.4 T
Experimental: The hydrodynamic size of INV-001 was measured to be 3.6 nm (FIG. 3b). Subsequently, the T1 and T2 relaxation rates (1/T1 and 1/T2) of INV-001 were measured at 9.4 T (FIG. 3c). The longitudinal and transverse relaxivities (r1 and r2) were calculated at various INV-001 concentrations (0.125, 0.25, 0.5, and 1.0 mM). The r1 was determined to be 2.61 mM^-1·s^-1 and the r2 was 4.33 mM^-1·s^-1 (FIGS. 3d and 3e).

[2] = MR relaxivity, phantom at 3 T; conditions: 3 T MRI
Text: The r2/r1 ratio serves as a metric for determining whether the nanoparticles are more appropriate for use as T1 MRI contrast agents or T2 MRI contrast agents.
The hydrodynamic diameter of the synthesized INV-001 was 3.9 nm with a surface charge of -3.3 mV. […] The particle size of this contrast agent exceeds the maximum size (2 nm) permissible for intravasation, thereby preventing its entry into blood vessels. Thus, it is theoretically suitable for use as a lymphatic-specific contrast agent that infiltrates the lymphatic vessels without venous contamination when administered intradermally or subcutaneously.
The measured r1 and r2 relaxivity values of NEMO-103 were 2.0 mM^-1s^-1 and 2.3 mM^-1s^-1, respectively (FIGS. 29d and 29e). The r2/r1 ratio, which is an important parameter for T1 MRI contrast agents, was calculated to be 1.15. […] For comparison, the measured r1 and r2 values of Dotarem® were 4.7 mM^-1s^-1 and 5.2 mM^-1s^-1, respectively, resulting in an r2/r1 ratio of 1.11.
To evaluate the T1 MRI performance of the materials from Example 7-7, both the spin-spin relaxivity coefficient (r2) and spin-lattice relaxivity coefficient (r1) were measured, and the r2/r1 ratio was calculated. The r2/r1 ratio is a critical indicator in determining whether a contrast agent is suitable for T1 or T2 MRI.

[3] = tested on: popliteal lymph node and surrounding lymphatic vessels; assay: Magnetic resonance lymphangiography (MRL) in rats, Example 1; format: in vivo, male Sprague-Dawley (SD) rats
Experimental: Specifically, all animals used in Example 1 were male Sprague-Dawley (SD) rats weighing 250-300 g. The prepared contrast agent was administered intradermally/subcutaneously into the fourth digits of both hind limbs using a 30-gauge needle. MRL was performed every 16 minutes using a 3D time-of-flight (TOF) sequence with a saturation band on a 9.4-T preclinical MRI scanner.
Gd-DOTA (Gd-DOTA, DOTAREM, Guerbet, Roissy CdG Cedex, France) was used as a Gd-based contrast agent. The Gd-DOTA stock solution, provided at a concentration of 500 mM, was diluted with normal saline before its administration.
The signal-to-noise ratio (SNR) and contrast-to-noise ratio (CNR) of the popliteal lymph node and surrounding lymphatic vessels were analyzed at a dose of 1.125 µmol (75 µL, 15 mM) of INV-001 and Gd-DOTA. Through sequential MRI imaging, dynamic patterns of SNR and CNR and peak time points in the popliteal lymph node and lymphatic vessels were obtained (FIG. 4a). […] In the 1.125 µmol INV-001 group, peak enhancement appeared between 16 and 32 minutes during extended visualization (SNRLN: 23.49 ± 8.64; SNRLV: 16.05 ± 3.52; CNRLN: 15.87 ± 11.05; CNRLV: 12.58 ± 3.37) (FIG. 4b).
Following injection of the contrast agents into the hind limb, magnetic resonance lymphangiography (MRL) was performed using 3D TOF under saturation band conditions to distinguish lymphatic vessels. […] In contrast, in all INV-001 groups, the popliteal lymph node and lymphatic vessels were clearly visualized without venous contamination (FIGs. 5e, 5f, and 5g, yellow arrows). Methylene blue was injected two days after MRL to verify the anatomical structures (FIGs. 5d and 5h).
Qualitative image analyses under various injection conditions were performed using Gd-DOTA and INV-001. In all groups, MRL provided good visualization of the popliteal lymph node and lymphatic vessels (FIG. 6). The qualitative image analysis was conducted according to the criteria shown in Table 1 (Criteria for qualitative score).

lymphatic vessels = assay: MRL after intradermal injection, Example 2; format: in vivo, rats; conditions: lower limb, checked with methylene blue
Experimental: INV-001 was administered intradermally into the interdigital space of the lower limb of animals using a 31-gauge syringe. The injection volume was set at 10, 20, 30, 40, 50, or 75 microliters per animal, corresponding to a human equivalent dose of 2, 4, 6, 8, 10, or 15 mL, respectively.
Prior to MRI acquisition, the animals were anesthetized by inhalation of isoflurane delivered in oxygen at a concentration of 0.5-2%. If necessary, local anesthesia with lidocaine was applied to relieve procedural discomfort.
Baseline MRI images were acquired prior to the administration of the contrast agent. Following the injection of INV-001 prepared in Example 2-1, MRI scans were conducted every 16 minutes for a total of 96 minutes. The imaging sequence used was 3D Time-of-Flight Gradient Echo (3D TOF GRE), with images obtained in axial, sagittal, and coronal planes. […]
Maximum intensity projection (MIP) images were generated from the baseline and post-injection MRI data acquired at 16-minute intervals for 96 minutes. […] The overall image quality, including vessel discontinuity, was assessed using a four-point scale (-, +, ++, +++). Additionally, the presence of dermal backflow and lymph node congestion was evaluated. […]
To confirm the clearance of the injected contrast agent, the administration site was evaluated 24 hours after intradermal injection.

knee joint cavity = assay: Magnetic resonance arthrography after intra-articular injection in rats; format: in vivo, Male Sprague-Dawley rats
Experimental: Male Sprague-Dawley rats aged 7 weeks or older were anesthetized using a mixture of oxygen and isoflurane gas. INV-002 synthesized in Example 4-1 was then administered into the knee joint, and T1-weighted MRI images were acquired using a fast spin echo sequence.
For example, the T1 signal intensity of the synovial fluid increased from 4,900 (before injection) to 21,000 (after injection). Subsequently, the contrast-to-noise ratios (CNRs) of various anatomical regions within the joint cavity- including the meniscus, joint capsule, cruciate ligament, bone, and fat - were analyzed (FIG. 22F). The CNR was calculated as the difference in average signal intensity between the synovial fluid and each anatomical structure, divided by the standard deviation of the background signal. After INV-002 injection, the CNRs for the meniscus, capsule, cruciate ligament, bone, and fat regions increased by 10-fold, 8.5-fold, 18-fold, 14-fold, 12-fold, […], respectively, compared to pre-injection levels.
The contrast effect of INV-002 was not only stronger than that of the gadolinium-based contrast agent (e.g., Dotarem) but also lasted longer. For quantitative analysis of contrast enhancement, the signal-to-noise ratio (SNR) was measured at two intra-articular locations (indicated by orange arrows), and the average SNR was plotted over time. […]

[4] = 1.125 µmol (75 µL, 15 mM), at peak enhancement

time of peak enhancement post-injection ([3]; popliteal lymph node and lymphatic vessels, scans every 16 min): 16 min
time of peak SNR post-injection (knee joint cavity; average of two intra-articular locations): 0.25 h
SNR dropped to baseline within (knee joint cavity; post-injection): ≤ 0.5 h
Compound: CNC[C@H](O)[C@@H](O)[C@H](O)[C@H](O)CO.O=C([O-])CN1CCN(CC(=O)[O-])CCN(CC(=O)O)CCN(CC(=O)[O-])CC1.[Gd+3] [Gd-DOTA]
T1 contrast enhancement in phantom studies [1]: ~3.7 mM⁻¹ s⁻¹
r1 [2]: 4.7 mM⁻¹ s⁻¹
qualitative score [3]: 3.2
venous contamination ([3]; 1.125 µmol (75 µL, 15 mM), hind limb): venous contamination was observed
CNRLN [3, 4]: 21.61 ± 10.04
CNRLV [3, 4]: 7.89 ± 5.15
SNRLV [3, 4]: 11.15 ± 5.83
SNRLN ([3]; 1.125 µmol (75 µL, 15 mM), at peak enhancement (Gd-DOTA 16 min, INV-001 16-32 min)): 26.96 ± 10.78
qualitative score ([3]; 2.25 µmol (75 µL, 30 mM)): 3.8
venous contamination ([3]; 2.25 µmol (75 µL, 30 mM), hind limb): venous contamination was observed
venous contamination ([3]; doses of 0.45 µmol or higher (discussion)): venous contamination in most animals
enhancement of lymphatic vessels versus veins (venous contamination) (lymphatic vessels): preferentially enhanced veins more than lymphatic vessels
